Experimental data from article PMC3195871 (Biochemical and biophysical research communications, 2011).

Target: T1, ArathEULS3 (Arabidopsis thaliana, UniProt Q945P1)
T1 sequence (Q945P1 2-317): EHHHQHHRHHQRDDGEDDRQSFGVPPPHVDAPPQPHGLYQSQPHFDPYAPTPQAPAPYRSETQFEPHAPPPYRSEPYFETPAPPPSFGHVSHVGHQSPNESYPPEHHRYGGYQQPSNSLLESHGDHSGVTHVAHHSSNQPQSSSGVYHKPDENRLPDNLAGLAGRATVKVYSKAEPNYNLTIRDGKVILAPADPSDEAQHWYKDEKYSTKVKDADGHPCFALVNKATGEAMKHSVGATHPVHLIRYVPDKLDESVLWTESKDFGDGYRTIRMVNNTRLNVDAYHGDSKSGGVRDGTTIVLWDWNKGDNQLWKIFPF
Experiment: glycan microarray v4.[…], fluorescence
Format: binding
Settings: glycan immobilised through spacer; relative to glycan with highest signal

| Molecule | %RFU ^* / ArathEUL |
| --- | --- |
| CC(=O)N[C@H]1[C@H](OCCOCCOCCOCCOCCOCCN)O[C@H](CO)[C@@H](O[C@@H]2O[C@H](CO)[C@H](O)[C@H](O)[C@H]2O)[C@@H]1O [Galβ1-4GlcNAcβ-(OCH2CH2)6NH2] | 15,6% |
| CC(=O)N[C@H]1[C@H](O[C@H]2[C@@H](O)[C@@H](CO)O[C@@H](O[C@H]3[C@H](O[C@@H]4O[C@@H](C)[C@@H](O)[C@@H](O)[C@@H]4O)[C@@H](NC(C)=O)[C@H](O[C@H]4[C@@H](O)[C@@H](CO)O[C@@H](O[C@H]5[C@H](O[C@@H]6O[C@@H](C)[C@@H](O)[C@@H](O)[C@@H]6O)[C@@H](NC(C)=O)[C@H](OCCN)O[C@@H]5CO)[C@@H]4O)O[C@@H]3CO)[C@@H]2O)O[C@H](CO)[C@@H](O[C@@H]2O[C@H](CO)[C@H](O[C@H]3O[C@H](CO)[C@@H](O)[C@H](O)[C@H]3NC(C)=O)[C@H](O)[C@H]2O)[C@@H]1O [GlcNAcα1-4Galβ1-4GlcNAcβ1-3Galβ1-4(Fucα1-3)GlcNAcβ1-3Galβ1-4(Fucα1-3)GlcNAcβ-Sp0] | 37,2% |
| CC(=O)N[C@H]1[C@H](O[C@H]2[C@@H](O)[C@@H](CO)O[C@H](OCCCN)[C@@H]2NC(C)=O)O[C@H](CO)[C@@H](O)[C@@H]1O [GlcNAcβ1-3GalNAcα-Sp8] | 37,0% |
| CC(=O)N[C@H]1[C@H](OCCN)O[C@H](CO)[C@@H](O[C@@H]2O[C@H](CO)[C@H](O)[C@H](O[C@]3(C(=O)O)C[C@H](O)[C@@H](NC(C)=O)[C@H]([C@H](O)[C@H](O)CO)O3)[C@H]2O)[C@@H]1O[C@@H]1O[C@@H](C)[C@@H](O)[C@@H](O)[C@@H]1O [Neu5Acα2-3Galβ1-4(Fucα1-3)GlcNAcβ-Sp0] | 46,6% |
| Fucα1-2Galβ1-4(Fucα1-3)GlcNAcβ1-2Manα1-6(Fucα1-2Galβ1-4(Fucα1-3)GlcNAcβ1-2Manα1-3)Manβ1-4GlcNAcβ1-4(Fucα1-6)GlcNAcβ-6AA | 18,9% |
| Fucα1-2Galβ1-4(Fucα1-3)GlcNAcβ1-3GalNAcα-Sp14 | 100,0% |
| GalNAcα1-3(Fucα1-2)Galβ1-4(Fucα1-3)GlcNAcβ1-3GalNAc-Sp14 | 73,6% |
| Galα1-3Galβ1-3GlcNAcβ1-2Manα1-3(Galα1-3Galβ1-3GlcNAcβ1-2Manα1-6)Manβ1-4GlcNAcβ1-4GlcNAc-Sp19 | 46,6% |
| Galβ1-4(Fucα1-3)GlcNAcβ1-4Galβ1-4(Fucα1-3)GlcNAcβ1-4Galβ1-4(Fucα1-3)GlcNAcβ-Sp0 | 22,7% |
| Galβ1-4(Fucα1-3)GlcNAcβ1-6GalNAc-Sp14 | 8,4% |
| Galβ1-4GlcNAcβ1-2Manα1-3(Galβ1-4GlcNAcβ1-2Manα1-6)Manβ1-4GlcNAcβ1-4GlcNAcβ-Sp12 | 9,1% |
| Galβ1-4GlcNAcβ1-4(Galβ1-4GlcNAcβ1-2)Manα1-3(GlcNAcβ1-4)(Galβ1-4GlcNAcβ1-6(Galβ1-4-GlcNAcβ1-2)Manα1-6)Manβ1-4GlcNAcβ1-4GlcNAc-Sp21 | 67,5% |
| Neu5Acα2-3-Galβ1-3(Galβ1-4(Fucα1-3)GlcNAcβ1-6)GalNAc-Sp14 | 14,8% |
